Experimental data: ChEMBL document CHEMBL1147927, “Piperazinyl CCR1 antagonists--optimization of human liver microsome stability” (Bioorg Med Chem Lett, 2007)

Columns and labels:
[1] = Metabolic stability in monkey liver microsomes; format: ADME, Macaca fascicularis, Microsome; details: cynomolgus monkey
[2] = Plasma clearance in iv dosed rat; format: ADME, organism-based
[3] = Metabolic stability in dog liver microsomes; format: ADME, Canis lupus familiaris, Microsome
[4] = Metabolic stability in rat liver microsomes; format: ADME, Microsome
[5] = Activity at CCL3 by chemotaxis assay; format: functional
[6] = Metabolic stability in human liver microsomes; format: ADME, Microsome
[7] = Half life in rat; format: ADME, organism-based; details: in vivo
[8] = Volume of distribution at steady state in rat; format: ADME, organism-based; details: in vivo, read-out: Vdss
[9] = molecular target: T1, C-C chemokine receptor type 1 (Homo sapiens, UniProt P32246); test: Binding Affinity at CCL3
T1 sequence (P32246 whole entry): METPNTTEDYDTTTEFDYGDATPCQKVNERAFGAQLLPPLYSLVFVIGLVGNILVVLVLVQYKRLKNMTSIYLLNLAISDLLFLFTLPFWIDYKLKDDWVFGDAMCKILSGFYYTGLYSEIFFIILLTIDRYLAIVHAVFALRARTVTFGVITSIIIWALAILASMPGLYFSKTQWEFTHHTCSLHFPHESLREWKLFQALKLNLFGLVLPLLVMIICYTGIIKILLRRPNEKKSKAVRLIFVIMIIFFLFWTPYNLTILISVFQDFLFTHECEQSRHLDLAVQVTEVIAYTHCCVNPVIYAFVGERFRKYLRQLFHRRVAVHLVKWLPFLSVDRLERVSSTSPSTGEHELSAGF

[10] = Volume of distribution at steady state in dog; format: ADME, organism-based, Canis lupus familiaris; details: in vivo, read-out: Vdss
[11] = Half life in dog; format: ADME, organism-based, Canis lupus familiaris; details: in vivo
[12] = Plasma clearance in iv dosed dog; format: ADME, organism-based, Canis lupus familiaris
[13] = Bioavailability in rat; format: ADME, organism-based; details: in vivo
[14] = Plasma clearance in monkey; format: ADME, organism-based, Macaca fascicularis; details: cynomolgus monkey
[15] = Volume of distribution at steady state in monkey; format: ADME, organism-based, Macaca fascicularis; details: cynomolgus monkey, in vivo; read-out: Vdss
[16] = Half life in monkey; format: ADME, organism-based, Macaca fascicularis; details: cynomolgus monkey, in vivo
[17] = Bioavailability in monkey; format: ADME, organism-based, Macaca fascicularis; details: cynomolgus monkey, in vivo
[18] = Bioavailability in dog; format: ADME, organism-based, Canis lupus familiaris; details: in vivo

Structure (SMILES) | CLhep predicted [1] [mL/min/kg] | clearance [2] [mL/min/kg] | CLhep predicted [3] [mL/min/kg] | CLhep predicted [4] [mL/min/kg] | IC50 [5] [nM] | CLhep predicted [6] [mL/min/kg] | half-life [7] [h] | Vd [8] [L/kg] | IC50 [9] [nM] | Vd [10] [L/kg] | half-life [11] [h] | clearance [12] [mL/min/kg] | bioavailability [13] [%] | clearance [14] [mL/min/kg] | Vd [15] [L/kg] | half-life [16] [h] | bioavailability [17] [%] | bioavailability [18] [%]
C[C@@H]1CN(Cc2ccc(F)cc2)[C@@H](C)CN1C(=O)COc1ccc(Cl)cc1C(=O)NCCN | 36 | 184 | 25 | 22 | 3 | 5.9 | 1 | 7.7 | 30 |  |  |  |  |  |  |  |  | 
C[C@@H]1CN(Cc2ccc(F)cc2)[C@@H](C)CN1C(=O)COc1ccc(Cl)cc1CC(=O)O | 18 | 5.2 | 11 | 25 | 2 | 4.7 | 3.7 | 3.2 | 38 | 0.3 | 11 | 0.4 |  |  |  |  |  | 
C[C@@H]1CN(Cc2ccc(F)cc2)CCN1C(=O)COc1ccc(Cl)cc1NC(N)=O [BX 471 FREE BASE] | 42 | 33 | 28 | 62 | 4 | 16 | 0.7 | 1.7 |  | 0.6 | 4 | 1.7 | 2 | 8.9 | 0.6 | 0.8 |  | 
C[C@@H]1CN(Cc2ccc(F)cc2)[C@@H](C)CN1C(=O)COc1ccc(Cl)cc1CS(=O)(=O)O | 18 | 17 | 11 | 21 | 3 | 4.7 | 4.6 | 2.6 | 23 | 0.4 | 21 | 0.2 | 40 | 51 | 2.1 | 1.1 | 19 | 100
C[C@@H]1CN(Cc2ccc(F)cc2)[C@@H](C)CN1C(=O)COc1ccc(Cl)cc1C(=O)CCC(=O)O | 18 | 42 | 11 | 31 | < 0.5 | 4.7 | 2.3 | 4 | 13 | 4.2 | 5.8 | 9.7 | 9 |  |  |  |  | 100
C[C@@H]1CN(Cc2ccc(F)cc2)[C@@H](C)CN1C(=O)COc1ccc(Cl)cc1NC(=O)NCCN | 18 |  | 11 | 24 | 1 | 4.9 |  |  | 8 |  |  |  |  |  |  |  |  | 
C[C@@H]1CN(Cc2ccc(F)cc2)CCN1C(=O)COc1ccc(Cl)cc1 | 40 |  | 27 | 63 | 86 | 14 |  |  | 860 |  |  |  |  |  |  |  |  | 
C[C@@H]1CN(Cc2ccc(F)cc2)[C@@H](C)CN1C(=O)COc1ccc(Cl)cc1C(=O)O | 31 | 2.4 | 11 | 20 | 68 | 4.7 | 14 | 2.4 | 59 | 0.2 | 11 | 0.2 |  | 3.4 | 0.9 | 5.9 |  | 
